Seven molecules from ChEMBL document CHEMBL5518224, “Rational Design of PARP1/c-Met Dual Inhibitors for Overcoming PARP1 Inhibitor Resistance Induced by c-Met Overexpression” (J Med Chem, 2024) can be followed below.

The target in test [1] is Poly [ADP-ribose] polymerase 1 (Homo sapiens, UniProt P09874). The test is described as follows: Inhibition of PARP1 (unknown origin) using histone as substrate incubated for 45 mins by absorbance based analysis.
Test [2] deals with T1, Hepatocyte growth factor receptor (Homo sapiens, UniProt P08581). The test is described as follows: Inhibition of c-Met (unknown origin) at 100 nM by HTRF method relative to control.
Test [3] concerns the target T1, Hepatocyte growth factor receptor. The test is described as follows: Inhibition of c-Met (unknown origin) by HTRF method. Background: Time-resolved FRET reads energy transfer from a long-lived donor to a nearby acceptor.
The next test relates to MDA-MB-231. The test is described as follows: Antiproliferative activity against human MDA-MB-231 cells harboring wild type BRCA and c-Met amplification assessed as inhibition of cell growth incubated for 7 days by MTT assay. The following applies: MDA-MB-231, 168 h. Type of test: functional, cell-based. For orientation: Tetrazolium dyes change colour on reduction, which living cells bring about.

Poly [ADP-ribose] polymerase 1, sequence (P09874 whole entry): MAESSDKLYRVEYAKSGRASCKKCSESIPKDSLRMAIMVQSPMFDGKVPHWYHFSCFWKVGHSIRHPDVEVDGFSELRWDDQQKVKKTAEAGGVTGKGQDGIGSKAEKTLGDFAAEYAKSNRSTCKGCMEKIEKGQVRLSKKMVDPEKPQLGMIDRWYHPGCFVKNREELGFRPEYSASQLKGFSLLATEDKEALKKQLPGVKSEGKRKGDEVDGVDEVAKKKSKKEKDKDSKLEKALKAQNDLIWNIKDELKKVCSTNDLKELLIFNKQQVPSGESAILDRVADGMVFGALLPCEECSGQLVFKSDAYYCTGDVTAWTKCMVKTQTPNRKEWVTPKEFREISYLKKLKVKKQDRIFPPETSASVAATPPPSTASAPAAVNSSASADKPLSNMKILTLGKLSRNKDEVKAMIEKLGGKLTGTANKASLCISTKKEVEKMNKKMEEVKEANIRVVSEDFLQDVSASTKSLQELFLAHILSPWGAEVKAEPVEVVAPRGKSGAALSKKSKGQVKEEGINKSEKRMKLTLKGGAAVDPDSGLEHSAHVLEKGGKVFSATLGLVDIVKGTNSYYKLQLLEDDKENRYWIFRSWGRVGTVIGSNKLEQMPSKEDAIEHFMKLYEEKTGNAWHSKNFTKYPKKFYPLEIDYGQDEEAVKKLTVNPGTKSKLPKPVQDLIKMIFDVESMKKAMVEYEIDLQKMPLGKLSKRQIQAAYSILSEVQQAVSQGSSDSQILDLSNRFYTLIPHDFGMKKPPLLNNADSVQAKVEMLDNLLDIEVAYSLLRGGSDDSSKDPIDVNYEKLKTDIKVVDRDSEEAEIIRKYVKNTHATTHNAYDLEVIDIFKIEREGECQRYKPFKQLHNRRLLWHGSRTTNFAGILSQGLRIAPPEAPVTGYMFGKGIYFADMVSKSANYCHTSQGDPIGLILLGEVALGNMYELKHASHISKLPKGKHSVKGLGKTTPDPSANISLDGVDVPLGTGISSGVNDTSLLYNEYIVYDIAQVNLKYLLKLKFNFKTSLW
T1 sequence (P08581 whole entry): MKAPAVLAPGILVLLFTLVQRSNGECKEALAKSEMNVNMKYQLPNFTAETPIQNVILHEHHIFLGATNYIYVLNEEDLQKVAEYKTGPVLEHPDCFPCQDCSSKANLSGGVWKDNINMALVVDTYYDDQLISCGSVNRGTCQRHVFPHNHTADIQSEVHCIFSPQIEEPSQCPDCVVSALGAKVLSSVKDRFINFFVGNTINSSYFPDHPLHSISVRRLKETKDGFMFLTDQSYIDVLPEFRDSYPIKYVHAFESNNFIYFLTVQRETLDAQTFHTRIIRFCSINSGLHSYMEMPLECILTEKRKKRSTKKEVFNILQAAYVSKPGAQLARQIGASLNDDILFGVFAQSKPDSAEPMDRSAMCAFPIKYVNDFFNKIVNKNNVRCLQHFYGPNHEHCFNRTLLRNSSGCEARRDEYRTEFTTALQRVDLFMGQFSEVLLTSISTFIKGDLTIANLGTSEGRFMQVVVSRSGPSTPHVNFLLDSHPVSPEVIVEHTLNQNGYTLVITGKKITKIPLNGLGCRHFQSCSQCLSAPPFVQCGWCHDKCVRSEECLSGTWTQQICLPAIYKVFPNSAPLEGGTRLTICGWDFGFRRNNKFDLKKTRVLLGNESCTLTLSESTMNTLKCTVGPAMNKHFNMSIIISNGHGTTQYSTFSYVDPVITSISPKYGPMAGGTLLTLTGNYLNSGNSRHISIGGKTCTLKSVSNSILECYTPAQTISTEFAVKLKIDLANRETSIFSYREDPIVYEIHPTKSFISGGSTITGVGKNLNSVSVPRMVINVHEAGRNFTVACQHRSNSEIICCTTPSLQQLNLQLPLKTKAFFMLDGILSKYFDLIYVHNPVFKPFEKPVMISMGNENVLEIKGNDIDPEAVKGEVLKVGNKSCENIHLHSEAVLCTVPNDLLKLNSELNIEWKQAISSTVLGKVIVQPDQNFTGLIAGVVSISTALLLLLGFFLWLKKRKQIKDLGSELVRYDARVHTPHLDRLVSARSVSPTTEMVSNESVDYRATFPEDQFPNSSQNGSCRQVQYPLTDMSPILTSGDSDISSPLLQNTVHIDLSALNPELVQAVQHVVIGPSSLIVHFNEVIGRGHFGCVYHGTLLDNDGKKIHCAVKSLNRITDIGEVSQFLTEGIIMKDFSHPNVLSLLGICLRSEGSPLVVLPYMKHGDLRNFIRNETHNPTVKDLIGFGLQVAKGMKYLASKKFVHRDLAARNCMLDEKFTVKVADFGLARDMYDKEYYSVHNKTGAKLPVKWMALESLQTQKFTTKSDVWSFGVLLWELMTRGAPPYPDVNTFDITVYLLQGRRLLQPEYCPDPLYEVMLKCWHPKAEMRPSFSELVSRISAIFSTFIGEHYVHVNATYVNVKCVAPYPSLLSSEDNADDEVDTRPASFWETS

Take `O=C(c1cc(Cc2n[nH]c(=O)c3ccccc23)ccc1F)N1CCN(c2ccc3c(OCCn4nc(-c5ccc(C(F)(F)F)cc5)ccc4=O)ccnc3c2)CC1`: half-maximal inhibition in test [1] (IC50) required 0.0073 µM. Besides, the inhibition (commonly the percentage by which the read-out fell short of the control) in test [2] is under 50%.
The matching figures for `O=C(c1cc(Cc2n[nH]c(=O)c3ccccc23)ccc1F)N1CCN(c2ccc3c(OCCn4ncccc4=O)ccnc3c2)CC1`: 0.0009 µM and under 50%.
As for `Cn1cc(-c2ccc(=O)n(CCOc3ccnc4cc(N5CCC(NC(=O)c6cc(Cc7n[nH]c(=O)c8ccccc78)ccc6F)CC5)ccc34)n2)cn1`, the results for the half-maximal inhibitory concentration (IC50) in test [1] and in test [3] were 0.042 µM and 0.0642 µM, respectively.
Consider `Cn1cc(-c2ccc(=O)n(CCOc3ccnc4cc(N5CCN(C(=O)c6cc(Cc7n[nH]c(=O)c8ccccc78)ccc6F)CC5)ccc34)n2)cn1`, for which the IC50 (usually the point on the concentration scale where inhibition reaches its midpoint) was found to be 0.00012 µM in test [1], 0.03 µM in test [3] and 0.23 µM in the test on MDA-MB-231.
In the case of `O=C(c1cc(Cc2n[nH]c(=O)c3ccccc23)ccc1F)N1CCN(c2ccc3c(OCCn4nc(-c5ccccc5)ccc4=O)ccnc3c2)CC1`, the results for the half-inhibitory concentration (IC50) (in test [1]; in test [3]; in the test with MDA-MB-231) were 0.0011 µM, 0.0377 µM and 1.73 µM, respectively.
As for `Cn1cc(-c2ccc(=O)n(CCOc3ccnc4cc(N5CCC(NC(=O)c6cc(Cc7n[nH]c(=O)c8ccccc78)ccc6F)C5)ccc34)n2)cn1` (configuration not stated), the IC50 stood at 0.0917 µM in test [1] and 0.0331 µM in test [3].
In the case of `CC1CN(c2ccc3c(OCCn4nc(-c5cnn(C)c5)ccc4=O)ccnc3c2)CCN1C(=O)c1cc(Cc2n[nH]c(=O)c3ccccc23)ccc1F` (racemic), the IC50 was determined as 0.0011 µM in test [1], 0.029 µM in test [3] and 5.54 µM with MDA-MB-231.
